34 compounds from patent publication US11787762B2, “Tetralin and tetrahydroquinoline compounds as inhibitors of HIF-2alpha” (ARCUS BIOSCIENCES, INC., priority 2020, dated 2023) can be followed below.

Assay [1] addresses T1, Histidine tagged HIF-2α protein containing PAS-B domain (240-350) (Homo sapiens, UniProt Q99814).
T1 construct: HIF-2α protein containing PAS-B domain (240-350); made in house
Nature of the assay: HIF-2α Scintillation Proximity Assay (SPA) binding assay. The following applies: 50 nM HIF-2α protein, 25 nM 3H-tracer. In outline: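 His-tagged HIF-2α PAS-B (240-350), 50 nM final, preincubated with compound 1 h at room temperature in 25 mM Tris-HCl pH 7.4, 150 mM NaCl, 0.15% BSA, 0.001% Tween 20, 2% DMSO. Copper-chelate SPA beads (3 ug/well, 45 min) and 25 nM tritiated N-(3-chlorophenyl)-4-nitro-2,1,3-benzoxadiazol-5-amine tracer followed; IC50 from four-parameter fits.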
On the technique in general: SPA uses beads or plates that emit light when radiolabelled molecules are held near them.

Assay [2] has as its target T2, HIF-2α (Homo sapiens, UniProt Q99814).
T2 construct: host or cells: 786-O cells stably transduced with Cignal Lenti HIF Luc Reporter (only the reporter was introduced, not HIF-2α)
Nature of the assay: HIF-2α luciferase reporter assay in HIF-Luc-786-O cells. Format: cell-based. In outline: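 786-O cells stably carrying a HIF-responsive luciferase reporter, 20,000/well in OptiMem with 1% DMSO, exposed to compound up to 50 uM for 20 h at 37 °C. ONE-Glo luminescence normalised to DMSO and no-cell controls; IC50 by four-parameter fit.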

T1 sequence (Q99814 240-350): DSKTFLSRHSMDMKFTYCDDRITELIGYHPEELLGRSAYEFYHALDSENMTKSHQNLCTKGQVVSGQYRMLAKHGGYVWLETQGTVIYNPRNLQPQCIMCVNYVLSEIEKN
T2 sequence (Q99814 whole entry): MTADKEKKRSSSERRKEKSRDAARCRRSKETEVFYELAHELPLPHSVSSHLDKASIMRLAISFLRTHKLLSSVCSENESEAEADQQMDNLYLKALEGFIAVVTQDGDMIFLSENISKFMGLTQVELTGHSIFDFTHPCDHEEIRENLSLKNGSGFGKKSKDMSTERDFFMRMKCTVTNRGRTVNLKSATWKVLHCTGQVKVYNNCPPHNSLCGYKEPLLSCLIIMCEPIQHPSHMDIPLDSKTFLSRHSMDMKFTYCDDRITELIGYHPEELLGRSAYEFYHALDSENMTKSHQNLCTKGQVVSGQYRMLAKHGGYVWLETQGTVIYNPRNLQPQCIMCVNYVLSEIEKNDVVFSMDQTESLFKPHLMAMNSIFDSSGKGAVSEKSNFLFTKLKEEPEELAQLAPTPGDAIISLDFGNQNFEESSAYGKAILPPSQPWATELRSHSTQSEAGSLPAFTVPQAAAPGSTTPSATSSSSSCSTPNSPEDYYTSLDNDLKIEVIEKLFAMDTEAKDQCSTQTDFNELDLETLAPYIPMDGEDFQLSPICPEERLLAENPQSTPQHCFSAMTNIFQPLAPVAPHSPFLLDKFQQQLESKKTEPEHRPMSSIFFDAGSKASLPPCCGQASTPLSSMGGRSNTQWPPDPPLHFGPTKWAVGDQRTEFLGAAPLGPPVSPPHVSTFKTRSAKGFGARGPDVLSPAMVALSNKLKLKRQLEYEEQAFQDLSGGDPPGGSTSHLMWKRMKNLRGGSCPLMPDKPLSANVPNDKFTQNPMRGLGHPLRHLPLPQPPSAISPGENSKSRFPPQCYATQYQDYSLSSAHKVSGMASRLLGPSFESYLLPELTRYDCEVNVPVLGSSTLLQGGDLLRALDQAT

The term IC50 denotes the concentration at which inhibition is half-maximal. A higher IC50 goes with weaker potency. Regarding `CS(=O)(=O)c1ccc([C@H]2CCCc3cc(F)cc(F)c32)c2c1[C@H](O)[C@H](F)C2` (stereo in doubt) [Example 99], the concentration for half-maximal inhibition (IC50) in assay [1] (Table 1) was in the range of 100 to 1000 nM; in assay [2] (Table 1, 20 hours incubation), 100 to 1000 nM.

As to `N#Cc1c(S(N)(=O)=O)ccc(N2CCCc3cc(F)cc(F)c32)c1C(F)F` [Example 72], the IC50 in assay [1] (Table 1) is greater than 1000 nM; in assay [2] (Table 1, 20 hours incubation) it was greater than 1000 nM.

In the case of `CS(=O)(=O)c1ccc([C@H]2CCCc3cc(F)cc(C#N)c32)c2c1[C@H](O)[C@@H](F)CC2` [Example 94], the IC50 lay within 100 to 1000 nM in assay [1] (Table 1) and 100 to 1000 nM in assay [2] (Table 1, 20 hours incubation).

Consider `O=S(=O)(c1ccc([C@H]2CCOc3cc(F)cc(F)c32)c2c1[C@H](O)[C@H](F)C2)C(F)(F)F` [Example 8, (1S,2R)-4-[(4R)-5,7-difluoro-3,4-dihydro-2H-1-benzopyran-4-yl]-2-fluoro-7-trifluoromethanesulfonyl-2,3-dihydro-1H-inden-1-ol], for which the half-maximal inhibitory concentration (IC50) in assay [1] (Table 1) fell in the range of 100 to 1000 nM; in assay [2] (Table 1, 20 hours incubation), 100 to 1000 nM.

For the compound `Fc1cc(F)c2c(c1)CCCN2c1ccc(C(F)(F)F)nc1` [Example 35], the IC50 in assay [1] (Table 1) was greater than 1000 nM; in assay [2] (Table 1, 20 hours incubation) it was 100 to 1000 nM.

Consider `CS(=O)(=O)c1ccc([C@@H]2CCCc3cnccc32)c2c1[C@H](O)C(F)(F)C2` [Example 106], for which the IC50 was greater than 1000 nM in assay [1] (Table 1) and greater than 1000 nM in assay [2] (Table 1, 20 hours incubation).

Consider `N#Cc1cc(F)cc2c1[C@@H](c1ccc(Cl)c3c1CC(F)(F)[C@H]3O)CCC2` [Example 117], for which the concentration for half-maximal inhibition (IC50) was in the range of 100 to 1000 nM in assay [1] (Table 1) and 100 to 1000 nM in assay [2] (Table 1, 20 hours incubation).

As for `O=S(=O)(c1ccc([C@H]2CCCc3cc(F)cc(F)c32)c2c1[C@H](O)[C@H](F)C2)C(F)(F)F` [Example 2a, (1S,2R)-4-[R-6,8-difluoro-1,2,3,4-tetrahydronaphth-1-yl]-2-fluoro-7-(trifluoromethylsulfonyl)-1-indanol], the IC50 in assay [1] (Table 1) is less than 100 nM; in assay [2] (Table 1, 20 hours incubation), less than 100 nM.

`Cn1ncc(C#N)c1-c1ccc([C@H]2CC[C@H](F)c3cc(F)cc(C#N)c32)c2c1[C@H](O)C(F)(F)C2` [Example 145, 5-[(3S)-7-[(1R,4S)-8-cyano-4,6-difluoro-1,2,3,4-tetrahydronaphthalen-1-yl]-2,2-difluoro-3-hydroxy-1,3-dihydroinden-4-yl]-1-methylpyrazole-4-carbonitrile]: the IC50 in assay [1] (Table 3) was less than 100 nM; in assay [2] (Table 3, 20 hours incubation), less than 100 nM.

Consider `O=S(=O)(c1ccc([C@@H]2CCOc3cc(F)cc(F)c32)c2c1[C@H](O)[C@H](F)C2)C(F)(F)F` [Example 104], for which the IC50 in assay [1] (Table 1) is greater than 1000 nM; in assay [2] (Table 1, 20 hours incubation), greater than 1000 nM.

`CC1(O)CCN(c2ccc(C(F)(F)F)c(F)c2C#N)c2c(C#N)cc(F)cc21` (centres unmarked) [Example 120]: the IC50 in assay [1] (Table 1) lay in the range of 100 to 1000 nM; in assay [2] (Table 1, 20 hours incubation), 100 to 1000 nM.

Turning to `CS(=O)(=O)c1ccc(N2CCCc3cc(F)cc(F)c32)c(Cl)c1C#N` [Example 43], the half-inhibitory concentration (IC50) in assay [1] (Table 1) was 100 to 1000 nM; in assay [2] (Table 1, 20 hours incubation) it was greater than 1000 nM.

On to `COc1cc(F)cc2c1N(c1ccc(S(=O)(=O)C(F)(F)F)c(C#N)c1Cl)CCC2` [Example 18, 2-chloro-3-(6-fluoro-8-methoxy-3,4-dihydroquinolin-1(211)-yl)-6-((trifluoromethyl)sulfonyl)benzonitrile], for which the IC50 in assay [1] (Table 1) was greater than 1000 nM; in assay [2] (Table 1, 20 hours incubation), greater than 1000 nM.

As for `N#Cc1cc(F)cc2c1N(c1cnc(C(F)(F)F)c(F)c1Cl)CCC2(F)F` [Example 127, 1-[4-Chloro-5-fluoro-6-(trifluoromethyl)pyridin-3-yl]-4,4,6-trifluoro-2,3-dihydroquinoline-8-carbonitrile], the concentration for half-maximal inhibition (IC50) in assay [1] (Table 2) is less than 100 nM; in assay [2] (Table 2, 20 hours incubation), less than 100 nM.

Consider `O=[N+]([O-])c1cc(S(=O)(=O)C(F)(F)F)ccc1N1CCCc2cc(F)ccc21` [Example 62], for which the IC50 in assay [1] (Table 1) was greater than 1000 nM; in assay [2] (Table 1, 20 hours incubation), greater than 1000 nM.

For the compound `CC(O)(c1ccc(N2CCCc3cc(F)cc(F)c32)c([N+](=O)[O-])c1)C(F)(F)F` (centres unmarked) [Example 87], the IC50 is greater than 1000 nM in assay [1] (Table 1) and greater than 1000 nM in assay [2] (Table 1, 20 hours incubation).

For the compound `N#Cc1cc(F)cc2c1N(c1ccc(C(F)(F)F)c(F)c1C#N)C[C@H](F)[C@@H]2F` [Example 130, (3S,4R)-1-[2-Cyano-3-fluoro-4-(trifluoromethyl)phenyl]-3,4,6-trifluoro-1,2,3,4-tetrahydroquinoline-8-carbonitrile], the IC50 was less than 100 nM in assay [1] (Table 2) and less than 100 nM in assay [2] (Table 2, 20 hours incubation).

Turning to `O=S(=O)(c1ccc(N2CCCc3cc(F)cc(F)c32)cc1CO)C(F)(F)F` [Example 76], the half-inhibitory concentration (IC50) was greater than 1000 nM in assay [1] (Table 1) and greater than 1000 nM in assay [2] (Table 1, 20 hours incubation).

With `CC1(O)c2c(S(C)(=O)=O)ccc([C@H]3CCCc4cc(F)cc(F)c43)c2CC1(F)F` (some centres unmarked) [Example 113], the half-inhibitory concentration (IC50) was greater than 1000 nM in assay [1] (Table 1) and greater than 1000 nM in assay [2] (Table 1, 20 hours incubation).

On to `COC1CCN(c2ccc(C(C)(F)F)c(F)c2C#N)c2c(C#N)cc(F)cc21` (centres unmarked) [Example 132, 1-[2-Cyano-4-(1,1-difluoroethyl)-3-fluorophenyl]-6-fluoro-4-methoxy-3,4-dihydro-2H-quinoline-8-carbonitrile], for which the IC50 in assay [1] (Table 2) is less than 100 nM; in assay [2] (Table 2, 20 hours incubation), less than 100 nM.

As for `CS(=O)(=O)c1ccc([C@@H]2CCCc3cc(F)cc(C#N)c32)c2c1[C@H](O)[C@@H](F)CC2` [Example 105], the IC50 was greater than 1000 nM in assay [1] (Table 1) and greater than 1000 nM in assay [2] (Table 1, 20 hours incubation).

For the compound `CS(=O)(=O)c1ccc(C2CCCc3cc(F)cc(F)c32)c2cccnc12` (centres unmarked) [Example 110], the half-inhibitory concentration (IC50) is greater than 1000 nM in assay [1] (Table 1) and greater than 1000 nM in assay [2] (Table 1, 20 hours incubation).

For the compound `N#Cc1cc(N2CCCc3cc(F)cc(C#N)c32)cnc1C(F)(F)F` [Example 14, 1-[5-cyano-6-(trifluoromethyl)pyridin-3-yl]-6-fluoro-1,2,3,4-tetrahydroquinoline-8-carbonitrile], the IC50 in assay [1] (Table 1) was in the range of 100 to 1000 nM; in assay [2] (Table 1, 20 hours incubation) it was 100 to 1000 nM.

For the compound `Cn1ncnc1-c1ccc([C@H]2CC[C@H](F)c3cc(F)cc(C#N)c32)c2c1[C@H](O)C(F)(F)C2` [Example 174, (5S,8R)-8-[(1S)-2,2-difluoro-1-hydroxy-7-(2-methyl-1,2,4-triazol-3-yl)-1,3-dihydroinden-4-yl]-3,5-difluoro-5,6,7,8-tetrahydronaphthalene-1-carbonitrile], the 50% inhibitory concentration (IC50) was less than 100 nM in assay [1] (Table 3) and less than 100 nM in assay [2] (Table 3, 20 hours incubation).

Consider `N#Cc1cc(F)cc2c1N(c1ccc(C(F)(F)F)c(Cl)c1C#N)CCC2F` (centres unmarked) [Example 123, 1-[3-Chloro-2-cyano-4-(trifluoromethyl)phenyl]-4,6-difluoro-3,4-dihydro-2H-quinoline-8-carbonitrile], for which the IC50 in assay [1] (Table 2) was less than 100 nM; in assay [2] (Table 2, 20 hours incubation), less than 100 nM.

Consider `N#Cc1cc(F)cc2c1[C@@H](c1ccc(-c3cccnc3N)c3c1CC(F)(F)[C@H]3O)CC[C@@H]2F` [Example 153, (5S,8R)-8-[(1S)-7-(2-aminopyridin-3-yl)-2,2-difluoro-1-hydroxy-1,3-dihydroinden-4-yl]-3,5-difluoro-5,6,7,8-tetrahydronaphthalene-1-carbonitrile], for which the IC50 in assay [1] (Table 3) is less than 100 nM; in assay [2] (Table 3, 20 hours incubation), less than 100 nM.

On to `CS(=O)(=O)c1ccc([C@H]2CCC(F)(F)c3cc(F)cc(C#N)c32)c2c1[C@H](O)[C@H](F)C2` [Example 135, (8R)-3,5,5-Trifluoro-8-[(1S,2R)-2-fluoro-1-hydroxy-7-methylsulfonyl-2,3-dihydro-1H-inden-4-yl]-7,8-dihydro-6H-naphthalene-1-carbonitrile], for which the IC50 in assay [1] (Table 2) is less than 100 nM; in assay [2] (Table 2, 20 hours incubation), less than 100 nM.

Regarding `Cn1nncc1-c1ccc([C@H]2CC[C@H](F)c3cc(F)cc(C#N)c32)c2c1[C@H](O)C(F)(F)C2` [Example 147, (5S,8R)-8-[(1S)-2,2-difluoro-1-hydroxy-7-(3-methyltriazol-4-yl)-1,3-dihydroinden-4-yl]-3,5-difluoro-5,6,7,8-tetrahydronaphthalene-1-carbonitrile], the IC50 in assay [1] (Table 3) was less than 100 nM; in assay [2] (Table 3, 20 hours incubation), less than 100 nM.

As for `N#Cc1cc(F)cc2c1N(c1ccc(S(=O)(=O)C(F)(F)F)c3cnccc13)CCC2` [Example 16, 6-fluoro-1-[8-(trifluoromethylsulfonyl)-5-isoquinolyl]-1,2,3,4-tetrahydroquinoline-8-carbonitrile], the IC50 was in the range of 100 to 1000 nM in assay [1] (Table 1) and 100 to 1000 nM in assay [2] (Table 1, 20 hours incubation).

`CS(=O)(=O)c1ccc(N2CCCc3cc(F)cc(C#N)c32)c(Cl)c1C#N` [Example 11, 1-(2-Chloro-3-cyano-4-methanesulfonylphenyl)-6-fluoro-1,2,3,4-tetrahydroquinoline-8-carbonitrile]: the IC50 in assay [1] (Table 1) is 100 to 1000 nM; in assay [2] (Table 1, 20 hours incubation), 100 to 1000 nM.

With `O=S(=O)(c1ccc([C@@H]2CCNc3cc(F)cc(F)c32)c2c1[C@H](O)[C@H](F)C2)C(F)(F)F` [Example 112], the IC50 in assay [1] (Table 1) was greater than 1000 nM; in assay [2] (Table 1, 20 hours incubation) it was greater than 1000 nM.

Regarding `N#Cc1cc(F)cc2c1[C@@H](c1ccc(S(=O)(=O)C(F)(F)F)c3c1C[C@@H](F)[C@H]3O)CCC2` [Example 5, (8R)-3-fluoro-8-((1S,2R)-2-fluoro-1-hydroxy-7-((trifluoromethyl)sulfonyl)-2,3-dihydro-1H-inden-4-yl)-5,6,7,8-tetrahydronaphthalene-1-carbonitrile], the 50% inhibitory concentration (IC50) in assay [1] (Table 1) is less than 100 nM; in assay [2] (Table 1, 20 hours incubation), less than 100 nM.

Turning to `O=S(=O)(c1ccc(N2CCC(CO)c3cc(F)cc(F)c32)c2c1[C@H](O)[C@H](F)C2)C(F)(F)F` (some centres unmarked) [Example 27], the IC50 in assay [1] (Table 1) was 100 to 1000 nM; in assay [2] (Table 1, 20 hours incubation), 100 to 1000 nM.

With `N#Cc1c(S(N)(=O)=O)ccc(N2CCCc3cc(F)cc(F)c32)c1Cl` [Example 75], the concentration for half-maximal inhibition (IC50) in assay [1] (Table 1) is greater than 1000 nM; in assay [2] (Table 1, 20 hours incubation) it was greater than 1000 nM.
